Measured values from patent publication US8618284B2 (Wyeth LLC, priority 2008, dated 2013).

How the values were obtained:
[1] = Granulation effect on the polymorphic transformation of Form A; assay type: physicochemical; details: dry industrial batch of Form A; for % Form B after granulation: after industrial granulation; for % Form B prior to granulation: before industrial granulation
[2] = upon contact with a solvent or solvent mixture (e.g., ethyl acetate and ethanol); cited from earlier work
[3] = in some drug formulations; cited from earlier work
[4] = aqueous and organic solvent systems, Form A compared with Form B; cited from earlier work
[5] = system: MCF-7 cell line (human breast cancer cell line); details: cited from earlier work
[6] = system: ovariectomized rat model of osteopenia; details: cited from earlier work
[7] = system: preclinical models of uterine stimulation; details: cited from earlier work

## Cc1c(-c2ccc(O)cc2)n(Cc2ccc(OCCN3CCCCCC3)cc2)c2ccc(O)cc12 [batch 8.5]
[1]; listed as 8.5
  % Form B after granulation: 0.6%
  % Form B prior to granulation: 0.5%

## Cc1c(-c2ccc(O)cc2)n(Cc2ccc(OCCN3CCCCCC3)cc2)c2ccc(O)cc12 [Form A, 1-[4-(2-azepan-1-yl-ethoxy)-benzyl]-2-(4-hydroxy-phenyl)-3-methyl-1H-indol-5-ol acetic acid]
[2]
  conversion of Form A to Form B: can easily convert to Form B
[3]
  bioavailability: better bioavailability
[4]
  solubility: higher solubility

## Cc1c(-c2ccc(O)cc2)n(Cc2ccc(OCCN3CCCCCC3)cc2)c2ccc(O)cc12 [batch 8.4]
[1]; listed as 8.4
  % Form B after granulation: 0.2%
  % Form B prior to granulation: 0.3%

## Cc1c(-c2ccc(O)cc2)n(Cc2ccc(OCCN3CCCCCC3)cc2)c2ccc(O)cc12 [bazedoxifene acetate, 1-[4-(2-azepan-1-yl-ethoxy)-benzyl]-2-(4-hydroxy-phenyl)-3-methyl-1H-indol-5-ol acetic acid]
[5]
  estrogen antagonist behaviour: behaves as an estrogen antagonist
[6]
  effect in preventing bone loss and reducing cholesterol: estrogen agonist-like effect
[7]
  stimulation of uterine response: little or no stimulation of uterine response

## Cc1c(-c2ccc(O)cc2)n(Cc2ccc(OCCN3CCCCCC3)cc2)c2ccc(O)cc12 [batch 8.6]
[1]; listed as 8.6
  % Form B after granulation: 0.1%

## Cc1c(-c2ccc(O)cc2)n(Cc2ccc(OCCN3CCCCCC3)cc2)c2ccc(O)cc12 [batch 8.7]
[1]; listed as 8.7
  % Form B after granulation: 0.2%
  % Form B prior to granulation: 0.3%
